From ChEMBL document CHEMBL1201862, “PubChem BioAssay data set” (2004)
Calls of active or inactive are those of the source.

Key:
[1] = biological target: Eukaryotic translation initiation factor 4E (Mus musculus, UniProt P63073); assay: eIF4E–eIF4G protein interaction inhibitors, dose response, biochemical, TR-FRET (AID 855); format: functional;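 further: potency for disrupting eIF4E binding to eIF4GI seen as loss of FRET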
[2] = biological target: DNA dC->dU-editing enzyme APOBEC-3A (Homo sapiens, UniProt P31941); assay: APOBEC3A DNA deaminase inhibitors, dose response, biochemical (AID 504722); format: functional
[3] = tested on: Streptococcus sp. 'group A'; assay: growth inhibition of control SK(-) GAS strain, dose response, counter-screen for streptokinase expression inhibitor project, luminescence, kanamycin, BacTiterGlo, confirmation (AID 1900); format: functional, organism-based
Streptococcus = assay: Group A Streptococcus viability loss, dose response, counter-screen for streptokinase expression inhibitor project, luminescence, BacTiterGlo (AID 1915); format: functional, organism-based;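 further: potency for reduction of bacterial viability or growth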
[4] = biological target: DNA dC->dU-editing enzyme APOBEC-3G (Homo sapiens, UniProt Q9HC16); assay: Dose Response confirmation of small molecule APOBEC3G DNA Deaminase Inhibitors via a fluorescence-based single-stranded DNA deaminase assay. [Related pubchem assays (depositor defined):AID493012, AID493028]; format: functional
Streptokinase A = biological target: T1, Streptokinase A (Streptococcus pyogenes serotype M1, UniProt P10520); assay: S. pyogenes streptokinase expression inhibitors, potency, dose response, plasminogen activation absorbance, OD405 (AID 1914); format: functional, Streptococcus pyogenes M1 GAS;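 further: secreted streptokinase activity via plasminogen activation per viability signal from cell pellet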
T1 sequence (P10520 whole entry): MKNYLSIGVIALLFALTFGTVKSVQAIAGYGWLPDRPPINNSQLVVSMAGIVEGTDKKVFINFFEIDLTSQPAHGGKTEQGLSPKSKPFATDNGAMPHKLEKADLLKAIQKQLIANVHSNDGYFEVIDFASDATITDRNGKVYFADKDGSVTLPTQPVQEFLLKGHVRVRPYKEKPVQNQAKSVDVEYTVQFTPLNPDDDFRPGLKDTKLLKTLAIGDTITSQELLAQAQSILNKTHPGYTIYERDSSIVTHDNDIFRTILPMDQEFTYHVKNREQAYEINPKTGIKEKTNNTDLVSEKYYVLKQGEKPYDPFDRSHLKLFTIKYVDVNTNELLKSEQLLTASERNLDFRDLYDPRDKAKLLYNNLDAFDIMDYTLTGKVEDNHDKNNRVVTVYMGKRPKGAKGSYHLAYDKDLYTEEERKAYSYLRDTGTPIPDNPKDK

H9c2 = assay: cells; format: functional, cell-based; settings: Rattus norvegicus, H9c2, Myocardium;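 further: confirmatory concentration-response retest of ultra-high-throughput screening hits for modulation of myocardial damage; cell death induced by hydrogen peroxide oxidative stress; compound pretreatment for 60 min then peroxide exposure for 2 h; potency is for protecting the cells against peroxide damage rather than for killing them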
Nonstructural protein 1 = Nonstructural protein 1 (Influenza A virus, UniProt Q194T2); format: functional, Influenza A virus (A/California/07/2009(H1N1))
Bcl-2-like protein 10 = biological target: T2, Bcl-2-like protein 10 (Homo sapiens, UniProt Q9HD36); assay: displacers of TR3 peptide from Bcl-B, primary screen, selectivity assay for Bfl-1 inhibitor project, biochemical, fluorescence polarization, FITC-TR3 peptide (AID 748);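 further: fluorescence polarization from a fluorescein-labelled TR3 peptide binding purified Bcl-B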
T2 sequence (Q9HD36 whole entry): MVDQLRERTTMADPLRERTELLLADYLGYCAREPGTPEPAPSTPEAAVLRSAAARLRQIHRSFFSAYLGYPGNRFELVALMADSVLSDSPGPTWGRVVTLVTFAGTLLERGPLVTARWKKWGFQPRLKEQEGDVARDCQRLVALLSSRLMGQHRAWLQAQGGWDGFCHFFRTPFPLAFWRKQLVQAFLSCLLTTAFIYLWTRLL

[5] = biological target: Glucose-6-phosphate 1-dehydrogenase (Homo sapiens, UniProt P11413); assay: human G6PD enzyme inhibitors, dose response, selectivity assay for P. falciparum G6PD inhibitor project, biochemical, fluorescence (AID 504792); format: functional
Hexokinase HKDC1 = biological target: T3, Hexokinase HKDC1 (Homo sapiens, UniProt Q2TB90); assay: HKDC1 hexokinase inhibitors, dose response, biochemical, W721R variant (AID 504729); format: functional
T3 sequence (Q2TB90 whole entry): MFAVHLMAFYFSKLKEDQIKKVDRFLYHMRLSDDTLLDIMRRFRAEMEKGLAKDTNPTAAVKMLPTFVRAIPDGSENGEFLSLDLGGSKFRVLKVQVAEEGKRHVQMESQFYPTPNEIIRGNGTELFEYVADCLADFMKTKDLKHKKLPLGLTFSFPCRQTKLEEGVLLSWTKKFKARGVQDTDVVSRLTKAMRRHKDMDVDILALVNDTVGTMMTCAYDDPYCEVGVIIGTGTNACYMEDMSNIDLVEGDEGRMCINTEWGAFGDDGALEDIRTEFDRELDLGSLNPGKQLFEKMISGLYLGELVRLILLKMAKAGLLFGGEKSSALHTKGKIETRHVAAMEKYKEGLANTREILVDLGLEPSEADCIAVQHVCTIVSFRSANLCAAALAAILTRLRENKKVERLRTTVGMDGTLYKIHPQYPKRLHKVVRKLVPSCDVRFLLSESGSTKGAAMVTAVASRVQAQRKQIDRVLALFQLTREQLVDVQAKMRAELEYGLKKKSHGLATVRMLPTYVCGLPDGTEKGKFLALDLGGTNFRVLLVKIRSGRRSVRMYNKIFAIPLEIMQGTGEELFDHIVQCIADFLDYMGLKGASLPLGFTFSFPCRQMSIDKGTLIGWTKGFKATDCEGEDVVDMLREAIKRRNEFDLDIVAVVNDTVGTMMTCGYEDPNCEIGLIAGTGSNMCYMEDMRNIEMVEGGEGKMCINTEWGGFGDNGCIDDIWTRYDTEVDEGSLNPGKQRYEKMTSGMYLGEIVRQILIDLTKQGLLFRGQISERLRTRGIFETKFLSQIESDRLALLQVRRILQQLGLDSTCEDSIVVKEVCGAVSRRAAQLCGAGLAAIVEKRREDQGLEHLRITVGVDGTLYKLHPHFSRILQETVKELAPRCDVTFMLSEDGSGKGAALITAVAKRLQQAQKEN

[6] = biological target: T4, Zinc finger protein mex-5 (Caenorhabditis elegans, UniProt Q9XUB2); assay: MEX-5/TCR-2 RNA interaction inhibitors, dose response, biochemical, C. elegans, fluorescence polarization (AID 1960)
T4 sequence (Q9XUB2 whole entry): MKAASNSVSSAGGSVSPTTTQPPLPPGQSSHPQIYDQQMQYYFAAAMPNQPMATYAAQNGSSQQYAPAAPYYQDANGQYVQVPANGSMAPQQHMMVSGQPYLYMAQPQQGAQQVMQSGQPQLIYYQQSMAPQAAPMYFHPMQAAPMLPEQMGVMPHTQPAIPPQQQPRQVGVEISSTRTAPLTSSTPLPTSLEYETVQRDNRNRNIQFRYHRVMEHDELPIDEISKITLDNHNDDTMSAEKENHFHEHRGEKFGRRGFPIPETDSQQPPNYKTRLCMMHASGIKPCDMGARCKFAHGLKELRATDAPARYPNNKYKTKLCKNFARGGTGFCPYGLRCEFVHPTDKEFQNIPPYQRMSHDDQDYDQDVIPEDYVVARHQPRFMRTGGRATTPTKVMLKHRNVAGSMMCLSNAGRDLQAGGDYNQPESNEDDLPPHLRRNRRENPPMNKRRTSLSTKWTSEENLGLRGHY

[7] = biological target: T5, RNA-binding protein pos-1 (Caenorhabditis elegans, UniProt G5EF15); assay: inhibitors of POS-1/mex-3 RNA binding, dose response, biochemical, fluorescence polarization (AID 1964);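 further: purified POS-1 fused to maltose binding protein made in E. coli; potency of compounds blocking POS-1 binding to fluorescent RNA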
T5 sequence (G5EF15 whole entry): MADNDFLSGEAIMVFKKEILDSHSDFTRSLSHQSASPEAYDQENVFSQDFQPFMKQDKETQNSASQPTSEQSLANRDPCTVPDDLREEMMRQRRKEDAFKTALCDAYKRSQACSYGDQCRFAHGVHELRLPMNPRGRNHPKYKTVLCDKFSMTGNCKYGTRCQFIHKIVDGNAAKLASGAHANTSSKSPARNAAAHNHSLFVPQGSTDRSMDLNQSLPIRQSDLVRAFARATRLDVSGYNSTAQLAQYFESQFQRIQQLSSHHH

[8] = biological target: T6, Apoptotic protease-activating factor 1 (Homo sapiens, UniProt O14727); format: functional
T6 sequence (O14727 whole entry): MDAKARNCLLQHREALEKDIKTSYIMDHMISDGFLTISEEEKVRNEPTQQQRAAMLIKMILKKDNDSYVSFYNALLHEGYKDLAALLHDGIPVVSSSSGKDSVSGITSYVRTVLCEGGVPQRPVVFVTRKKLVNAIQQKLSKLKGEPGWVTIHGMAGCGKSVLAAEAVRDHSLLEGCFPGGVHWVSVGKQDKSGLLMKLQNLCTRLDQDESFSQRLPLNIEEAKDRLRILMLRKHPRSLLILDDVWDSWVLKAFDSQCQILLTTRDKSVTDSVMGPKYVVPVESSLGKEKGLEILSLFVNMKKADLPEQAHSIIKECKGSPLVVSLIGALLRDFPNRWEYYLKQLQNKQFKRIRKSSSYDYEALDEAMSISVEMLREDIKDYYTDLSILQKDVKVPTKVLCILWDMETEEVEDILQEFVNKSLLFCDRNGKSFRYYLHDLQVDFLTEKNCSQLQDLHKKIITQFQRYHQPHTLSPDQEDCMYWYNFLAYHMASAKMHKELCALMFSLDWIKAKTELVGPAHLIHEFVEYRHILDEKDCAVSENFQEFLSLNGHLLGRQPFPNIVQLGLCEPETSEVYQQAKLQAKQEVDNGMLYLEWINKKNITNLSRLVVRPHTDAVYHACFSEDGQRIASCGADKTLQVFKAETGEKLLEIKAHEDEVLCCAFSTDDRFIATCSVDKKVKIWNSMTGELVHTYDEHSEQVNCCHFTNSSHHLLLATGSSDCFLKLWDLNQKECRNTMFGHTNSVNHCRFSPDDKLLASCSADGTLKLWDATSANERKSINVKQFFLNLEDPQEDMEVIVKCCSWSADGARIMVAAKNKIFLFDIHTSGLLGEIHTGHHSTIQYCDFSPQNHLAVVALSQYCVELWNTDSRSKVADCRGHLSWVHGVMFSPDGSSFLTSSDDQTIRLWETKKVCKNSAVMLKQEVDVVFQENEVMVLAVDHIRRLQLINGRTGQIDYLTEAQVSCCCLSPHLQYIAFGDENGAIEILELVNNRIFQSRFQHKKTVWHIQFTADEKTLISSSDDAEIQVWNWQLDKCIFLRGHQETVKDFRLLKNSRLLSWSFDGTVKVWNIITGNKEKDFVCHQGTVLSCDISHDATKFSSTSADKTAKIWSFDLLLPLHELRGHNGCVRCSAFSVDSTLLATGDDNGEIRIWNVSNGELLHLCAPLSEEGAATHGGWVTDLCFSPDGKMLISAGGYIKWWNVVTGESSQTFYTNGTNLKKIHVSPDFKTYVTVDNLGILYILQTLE

[9] = biological target: Glyceraldehyde-3-phosphate dehydrogenase (Homo sapiens, UniProt P04406)
[10] = biological target: T7, Alkaline phosphatase, tissue-nonspecific isozyme (Homo sapiens, UniProt P05186); assay: human TNAP enzyme inhibitors, SAR follow-up, biochemical, luminescent, dose response (AID 1056)
T7 sequence (P05186 whole entry): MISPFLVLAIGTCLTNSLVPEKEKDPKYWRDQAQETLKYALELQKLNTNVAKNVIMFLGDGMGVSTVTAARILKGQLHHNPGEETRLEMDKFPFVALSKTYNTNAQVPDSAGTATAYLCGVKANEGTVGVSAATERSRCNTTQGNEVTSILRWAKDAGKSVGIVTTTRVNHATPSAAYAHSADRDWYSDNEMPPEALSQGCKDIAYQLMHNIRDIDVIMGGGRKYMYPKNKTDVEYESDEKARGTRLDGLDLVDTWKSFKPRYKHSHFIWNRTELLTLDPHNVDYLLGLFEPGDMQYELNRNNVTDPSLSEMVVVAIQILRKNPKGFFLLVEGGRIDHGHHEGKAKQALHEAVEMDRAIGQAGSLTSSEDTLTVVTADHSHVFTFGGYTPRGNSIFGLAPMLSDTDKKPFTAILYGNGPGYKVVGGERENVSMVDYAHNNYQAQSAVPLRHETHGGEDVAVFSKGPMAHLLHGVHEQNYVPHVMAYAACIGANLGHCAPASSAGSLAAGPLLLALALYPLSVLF

[11] = biological target: T8, Ubiquitin-conjugating enzyme E2 N (Homo sapiens, UniProt P61088); format: functional;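 further: Dose-response confirmation in a TR-FRET assay detecting UBC13-driven polyubiquitin chain formation, inhibition measured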
T8 sequence (P61088 whole entry): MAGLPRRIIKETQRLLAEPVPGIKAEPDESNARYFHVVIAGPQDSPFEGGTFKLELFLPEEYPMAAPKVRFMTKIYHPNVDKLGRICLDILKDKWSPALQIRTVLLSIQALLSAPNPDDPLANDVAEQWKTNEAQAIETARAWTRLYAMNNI

Sequence of DNA dC->dU-editing enzyme APOBEC-3A (P31941 whole entry): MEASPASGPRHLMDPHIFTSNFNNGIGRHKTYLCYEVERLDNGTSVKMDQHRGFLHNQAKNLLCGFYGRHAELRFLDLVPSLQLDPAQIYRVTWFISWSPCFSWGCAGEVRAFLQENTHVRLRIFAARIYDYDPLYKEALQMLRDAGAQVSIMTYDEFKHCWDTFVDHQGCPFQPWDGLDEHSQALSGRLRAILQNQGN
Sequence of Glyceraldehyde-3-phosphate dehydrogenase (P04406 whole entry): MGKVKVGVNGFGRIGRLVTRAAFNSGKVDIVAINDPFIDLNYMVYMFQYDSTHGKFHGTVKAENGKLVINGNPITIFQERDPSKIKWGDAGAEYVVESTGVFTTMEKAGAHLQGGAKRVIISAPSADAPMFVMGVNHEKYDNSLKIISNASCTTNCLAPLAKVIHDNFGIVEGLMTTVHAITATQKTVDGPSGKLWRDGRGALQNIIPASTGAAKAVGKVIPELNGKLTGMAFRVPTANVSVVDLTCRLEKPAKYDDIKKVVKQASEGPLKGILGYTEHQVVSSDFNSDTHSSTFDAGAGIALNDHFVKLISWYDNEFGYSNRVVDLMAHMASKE
Sequence of DNA dC->dU-editing enzyme APOBEC-3G (Q9HC16 whole entry): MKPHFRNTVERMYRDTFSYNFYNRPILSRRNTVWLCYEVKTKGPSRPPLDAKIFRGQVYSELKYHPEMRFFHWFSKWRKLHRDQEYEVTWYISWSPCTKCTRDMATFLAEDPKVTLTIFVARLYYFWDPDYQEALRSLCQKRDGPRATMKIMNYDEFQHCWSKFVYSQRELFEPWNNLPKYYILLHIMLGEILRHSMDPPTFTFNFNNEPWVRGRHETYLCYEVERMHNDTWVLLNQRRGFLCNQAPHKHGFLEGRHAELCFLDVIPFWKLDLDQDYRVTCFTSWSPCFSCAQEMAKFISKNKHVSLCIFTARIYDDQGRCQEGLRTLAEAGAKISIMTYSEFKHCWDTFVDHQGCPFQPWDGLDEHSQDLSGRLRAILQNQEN
Sequence of Eukaryotic translation initiation factor 4E (P63073 whole entry): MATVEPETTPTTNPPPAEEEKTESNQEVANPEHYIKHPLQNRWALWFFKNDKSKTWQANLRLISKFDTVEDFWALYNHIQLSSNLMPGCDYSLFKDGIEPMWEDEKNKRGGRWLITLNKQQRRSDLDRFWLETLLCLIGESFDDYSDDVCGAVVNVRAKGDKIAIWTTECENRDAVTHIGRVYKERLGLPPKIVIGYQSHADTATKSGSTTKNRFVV
Sequence of Glucose-6-phosphate 1-dehydrogenase (P11413 whole entry): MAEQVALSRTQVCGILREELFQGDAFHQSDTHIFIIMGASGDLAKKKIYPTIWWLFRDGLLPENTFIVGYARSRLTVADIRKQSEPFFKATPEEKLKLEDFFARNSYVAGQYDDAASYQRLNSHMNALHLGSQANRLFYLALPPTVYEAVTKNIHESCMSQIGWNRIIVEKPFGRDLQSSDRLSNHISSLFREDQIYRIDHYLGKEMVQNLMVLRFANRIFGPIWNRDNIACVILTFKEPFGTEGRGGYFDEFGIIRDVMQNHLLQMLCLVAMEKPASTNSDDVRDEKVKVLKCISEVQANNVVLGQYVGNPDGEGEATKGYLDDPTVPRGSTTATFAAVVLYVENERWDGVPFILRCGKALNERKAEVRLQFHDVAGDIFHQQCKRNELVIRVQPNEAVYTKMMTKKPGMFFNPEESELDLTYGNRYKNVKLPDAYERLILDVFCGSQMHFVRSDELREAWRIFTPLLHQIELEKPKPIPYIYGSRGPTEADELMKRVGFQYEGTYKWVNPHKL
Sequence of Nonstructural protein 1 (Q194T2 whole entry): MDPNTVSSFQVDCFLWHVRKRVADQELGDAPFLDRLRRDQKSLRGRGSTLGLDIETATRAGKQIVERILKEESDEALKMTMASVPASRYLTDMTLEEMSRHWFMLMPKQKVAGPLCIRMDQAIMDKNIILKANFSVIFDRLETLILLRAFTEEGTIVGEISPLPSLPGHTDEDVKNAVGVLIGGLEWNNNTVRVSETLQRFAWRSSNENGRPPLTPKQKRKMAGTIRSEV

`COC(=O)c1ccc(CSc2nnc(S)s2)o1` was tested, and the IC50 [1] was > 64 µM (inactive), the IC50 [2] was > 100 µM (inactive) and the EC50 [3] was 5.69 µM (active). The EC50 (Streptococcus) was 9.6 µM (active), the IC50 [4] was 5.99 µM (active) and the EC50 (Streptokinase A) was 5.61 µM (active).

With `C[C@@H](C(=O)Nc1nc(-c2ccccn2)cs1)N1C(=O)C2CCCCC2C1=O` (some centres not stated) the IC50 (H9c2) was 8.43 µM (active), the IC50 (Nonstructural protein 1) was 8.38 µM (active) and the IC50 (Bcl-2-like protein 10) was 96 µM (inactive).

In the case of `C=CCN1C=C2C(=O)C(C)(OC(=O)CCC(=O)OC)C(=O)C(Br)=C2C=C1c1ccc(OC)cc1` (configuration not stated), the IC50 [5] is reported as 29.9 µM (inactive), the IC50 (Hexokinase HKDC1) is reported as 24.6 µM (inactive) and the EC50 [6] is reported as 42.8 µM (active). The EC50 [7] was 50.2 µM (active) and the IC50 [8] was 32.6 µM (active).

For `O=S(=O)(Nc1ccc2ccccc2c1)c1cc(Cl)ccc1F`, the IC50 [9] was > 10 µM (inconclusive) and the IC50 [10] was > 10 µM (inactive).

For `Sc1nnc(-c2ccccn2)n1/N=C/c1c(Cl)cccc1Cl`, the IC50 [2] was > 100 µM (inactive) and the IC50 [4] was 4.67 µM (active).

For `CC(C)Cn1c(S)nnc1-c1cccc(S(=O)(=O)N2CCOCC2)c1`, the IC50 [2] was > 100 µM (inactive) and the IC50 [4] was 5.37 µM (active).

With `CC(C)CC(C(=O)NC(C)(C)C)N(Cc1cccs1)C(=O)c1snc(C(N)=O)c1N` (configuration not stated) the IC50 [11] was > 20 µM (inactive).

`NC(=S)N=Nc1c(O)n(Cc2ccc(F)cc2)c2ccccc12` was tested, and the IC50 [11] was > 20 µM (inactive).

For `CC(C)CNC(=O)c1cc(-c2cc(F)c(Cl)cc2Cl)n[nH]1`, the IC50 [9] was > 10 µM (inconclusive) and the IC50 [10] was 0.27 µM (active).

With `Cc1ccccc1N1C(=O)c2sc3nc4c(c(=O)n3c2C1=O)CCC4` the IC50 (Bcl-2-like protein 10) was 54.9 µM (inactive).

`COc1ccc(OC)c(CNc2cnc3ccccc3c2)c1` was tested, and the IC50 [9] was > 100 µM (not active) and the IC50 [10] was > 100 µM (inactive).
